Patent US12194014B2, “Platinum-based amphiphile prodrugs” (NANOMED HOLDINGS PTY LTD, priority 2018, dated 2025)

Tests used:
[1] = Mesophase behaviour by polarized optical microscopy (POM); assay type: physicochemical; settings: for POM observation on exposure to water: 25° C. and 37° C.; for Appearance of the Lyotropic phase at excess water (25° C.-50° C.): POM, equilibration 1 h
Experimental: Polarized Optical Microscopy (POM): Samples used for Polarized Optical Microscopy (POM) were prepared by placing a small amount of prodrug amphiphile on a microscope slide and covered with a cover slip. Water was placed on the edges of the cover slip and allowed to flow into the sample by capillary action. The microscope slide was placed in a Linkam PE94 hot stage (Linkam Scientific Instruments Ltd. Surrey, England) and heated at 3° C./min between room temperature and 50° C. […] Images were captured with a Nikon DS-Ri-1 camera. All images were taken at 100× magnification.
The formation of lyotropic mesophases is based on the interaction of the prodrug amphiphile with water. Polarized optical microscopy was used to study the liquid crystalline or crystalline structures of the prodrug amphiphiles. This method was used as a preliminary and qualitative investigation to observe the morphological changes of the amphiphile as well as to predict the structural changes of the mesophases which may form upon hydration with water. For each prodrug amphiphile, a small amount of the neat and dry sample was placed on a microscope slide and covered with a cover slip. Water was placed on the edges of the cover slip to allow to flow into the sample by capillary action. Images were captured at 25° C. before and after the addition of water and at 37° C. after exposure to water. 37° C. was selected due to its physiological relevance. […]

[2] = Reduction kinetics of Pt (IV) prodrug nanoparticles with ascorbic acid (LC-MS); assay type: in vitro ADME
Experimental: The reducing agent was applied at concentrations corresponding to those found in the living cells' environment, e.g. 1 mM ascorbic acid or 2 mM glutathione (GSH).
Dispersed nanoparticles of Pt (IV) prodrug amphiphiles were mixed with GSH, ascorbic acid or their combination. The ratios of the reducing agents to platinum prodrugs were 10:1 or 50:1 for ascorbic acid and 20:1 for GSH. The reduction kinetics was analysed by LC-MS via monitoring the peaks related to each prodrug amphiphile. The prodrugs were detected by negative ions optimised for each platinum amphiphile. The reduction kinetics was plotted as the percentage of the area under the peak of Pt (IV)-prodrug compared to the peak before the addition of the reducing agent against the time of incubation. At each time point 10 μl of a sample withdrawn from the reaction solution was injected directly into a Phenomenex C8 150 mm×2 mm 5 μm Luna column (Phenomenex, Australia). A 100% Methanol solution was used as the mobile phase with a flow rate of 0.5 ml/min for 8 minutes. The sample after the column separation was eluted to the ESI source. […] The samples were well maintained at a temperature of 37° C. during the entire measurement by incubation in the temperature-controlled auto-sampler. Data was acquired and processed with Xcalibur Quan chromatography software.

[3] = SAXS of neat and hydrated amphiphiles (phase, lattice parameter); assay type: physicochemical; settings: for lattice parameter, hydrated / phase, hydrated: excess water
Experimental: SAXS analyses of the bulk and lyotropic phases of the amphiphiles were performed on a Bruker NanoSTAR laboratory SAXS instrument (Brucker AXS, Kalsruhe, Germany).
(§1) The equilibrated lyotropic phases were placed into a demountable button sample cell. For the analysis of the dispersions, a multi-capillary holder was used. Button cells and capillary holder interchangeably fit into a block setup that was temperature-controlled with a Peltier heater-cooler system. 2D scattering images were radially averaged to conventional 1 D scattering plots and as a function of the q value (Å^−1) where q is the length of the scattering vector which was calculated using the formula q=(4π/λ) sin(θ/2), where λ is the wavelength and θ is the scattering angle.
(§2) Small angle X-ray scattering patterns of emulsions and liposomes display large broad peaks while liquid crystalline phases of highly ordered nanostructured particles such as cubosomes and hexosomes display distinct sharp peaks. The relative positions of the peaks (“spacing”) allows for the elucidation of the symmetry of the structure. The interplanar distance (d) between two reflecting planes may be calculated using the formula d=(2π)/q, where q is the absolute position of the peak. This, in turn allows for the calculation of the lattice parameter (a), the size of the unit cell, to be calculated.

[4] = SAXS / synchrotron SAXS of dispersed nanoparticles; assay type: physicochemical; settings: dispersion with PEG stabiliser
Experimental: as §1, §2
The CP prodrug amphiphiles were hydrated with warm PBS containing 10-30% PEG4K-oleoyl or other steric stabilisers such F108 or F127 and sonicated in a sonicator bath and using a probe sonicator resulting in the lipid emulsion. The nanoparticles were then processed through a polycarbonate membrane (3×400 nm, 3×200 nm and 3×100 nm) using an extruder (Avestin, LipoFast LF-50) in order to ensure homogenous sizing. The CP prodrug-phospholipid/cholesterol nanoparticles were prepared by mixing the CP amphiphiles, DMPC and cholesterol in ethanol, followed by vigorous mixing and gentle evaporation under reduced pressure resulting in a thin film. The thin film was then hydrated with warm PBS containing 10-30% of PEG4K-oleoy solution, sonicated in a sonicator bath and using a probe sonicator resulting in the lipid emulsion. The nanoparticles were then processed through a polycarbonate membrane (3×400, 3×200 nm, 9×100 nm) using an extruder (Avestin, LipoFast LF-50) in order to ensure homogenous sizing between 20-200 nm.

CCCCCCCCCCCCCCCC(=O)[O][Pt]([Cl])([Cl])[O]C(=O)CCCCCCCCCCCCCCC.N.N [CP-bis (palmitoyl), cis,cis,trans-[PtCl2(NH3)2(palmitoyl)2]]
POM observation on exposure to water [1]: amenable to swelling to some extent

CCCCCCCCCCCC(=O)[O][Pt]([Cl])([Cl])[O]C(=O)CCCCCCCCCCC.N.N [CP-bis (lauroyl), cis,cis,trans-[PtCl2(NH3)2(lauroyl)2]]
POM observation on exposure to water [1]: no observable difference after hydration with water at either 25 or 37 °C

CCCCCCCCCCCCCC(=O)[O][Pt]1([NH2])([NH2])([O]C(=O)CCCCCCCCCCCCC)[O]C(=O)C2(CCC2)C(=O)[O]1 [Carboplatin-bis (myristoyl), cis, trans [(Diamine) (1,1-cyclobutanedicarboxylato) (bis myristoyl)]]
Appearance of the Lyotropic phase at excess water (25° C.-50° C.) [1]: No distinct mesophase
maximum reduction ([2]; ascorbic acid as reducing agent, up to 24 h): 80%

CCCCCCCCCCCCCC(=O)[O][Pt]([Cl])([Cl])[O]C(=O)CCCCCCCCCCCCC.N.N [CP-bis (myristoyl), cis,cis,trans-[PtCl2(NH3)2(myristoyl)2]]
POM observation on exposure to water [1]: amenable to swelling to some extent

CCCCC/C=C\C/C=C\CCCCCCCC(=O)[O][Pt]([Cl])([Cl])[O]C(=O)CCCCCCC/C=C\C/C=C\CCCCC.N.N [CP-bis (linoleoyl), cis,cis,trans-[PtCl2(NH3)2(linoleoyl)2]]
POM observation on exposure to water [1]: amenable to swelling to some extent
Appearance of the Lyotropic phase at excess water (25° C.-50° C.) [1]: No distinct mesophases
lattice parameter, hydrated ([3]; temperature not given): 33.5 ± 0.5 Å
phase, hydrated ([3]; temperature not given): LC1
lattice parameter, neat non-hydrated ([3]; temperature not given): 33.5 ± 0.5 Å
phase, neat non-hydrated ([3]; temperature not given): LC1

CC(C)CCCC(C)CCCC(C)CCCC(C)CC(=O)[O][Pt]([NH2])([NH2])([Cl])([Cl])[O]C(=O)CC(C)CCCC(C)CCCC(C)CCCC(C)C (mixture of isomers) [CP-bis (phytanoyl), cis,cis,trans-[PtCl2(NH3)2(phytanoyl)2]]
POM observation on exposure to water [1]: amenable to swelling to some extent
Appearance of the Lyotropic phase at excess water (25° C.-50° C.) [1]: No distinct mesophases
lattice parameter, neat non-hydrated ([3]; 25° C.): 37.3 ± 0.5 Å
phase, neat non-hydrated ([3]; 25° C.): LC1
lattice parameter, neat non-hydrated ([3]; 37° C.): 37.3 ± 0.5 Å
phase, neat non-hydrated ([3]; 37° C.): LC1
lattice parameter, hydrated ([3]; 25° C.): 37.3 ± 0.5 Å
phase, hydrated ([3]; 25° C.): LC1
lattice parameter, hydrated ([3]; 37° C.): 39.8 ± 0.5 Å
phase, hydrated ([3]; 37° C.): LC1

CCCCCCCC/C=C\CCCCCCCC(=O)[O][Pt]([NH2])([NH2])([Cl])([Cl])[O]C(=O)CCCCCCC/C=C\CCCCCCCC [CP-bis (oleoyl), cis,cis,trans-[PtCl2(NH3)2(oleoyl)2]]
POM observation on exposure to water [1]: amenable to swelling to some extent
Appearance of the Lyotropic phase at excess water (25° C.-50° C.) [1]: No distinct mesophases
lattice parameter, hydrated ([3]; temperature not given): 34.2 ± 0.5 Å
phase, hydrated ([3]; temperature not given): LC1
lattice parameter, neat non-hydrated ([3]; temperature not given): 34.2 ± 0.5 Å
phase, neat non-hydrated ([3]; temperature not given): LC1

CCCCCCCCCCCCCC(=O)OCCOCCOCCNC(=O)CCC(=O)[O][Pt]1([O]C(=O)CCC(=O)NCCOCCOCCOC(=O)CCCCCCCCCCCCC)[O]C(=O)C2(CCC2)C(=O)[O]1.N.N [Carboplatin-bis (suc-PEG3-myristoyl), cis, [Pt (Diamine) (1,1-cyclobutanedicarboxylato) (succinylamide-triethyleneglycol-myristoyl)2]]
Appearance of the Lyotropic phase at excess water (25° C.-50° C.) [1]: Lamellar

CCCCCCCC/C=C\CCCCCCCC(=O)OCCOCCOCCOC(=O)[O][Pt]([NH2])([NH2])([Cl])([Cl])[O]C(=O)OCCOCCOCCOC(=O)CCCCCCC/C=C\CCCCCCCC [CP-bis (PEG3-oleoyl), cis,cis,trans-(PtCl2(-triethyleneglycolyl-oleoyl)2)]
POM observation on exposure to water [1]: formation of a lamellar liquid crystalline structures
lattice parameter, hydrated ([3]; 25° C.): 43.93 ± 0.5 Å
lattice parameter, neat non-hydrated ([3]; temperature not given): 40.80 ± 0.5 Å
lattice parameter of dispersed nanoparticles [4]: 44.28±0.5 Å
structure of dispersed nanoparticles [4]: lamellar dispersed nanoparticle

cis, trans [Oxaliplatin-bis (myristoyl), cis, trans [Pt ((1R, 2R)-1,2 cyclohexanediamine-N,N′) (oxalate(2-)O,O′) (myristoyl)2]]
reduction rate compared with carboplatin prodrug ([2]; 1 mM ascorbic acid, 0.1 mM prodrug in DMPC/cholesterol nanoparticles): higher rate up to 3 h compared with carboplatin prodrug

CCCCCCCC/C=C\CCCCCCCC(=O)OCCOCCOCCNC(=O)CCC(=O)[O][Pt]([NH2])([NH2])([Cl])([Cl])[O]C(=O)CCC(=O)NCCOCCOCCOC(=O)CCCCCCC/C=C\CCCCCCCC [CP-bis(suc-amino-PEG3-oleoyl), cis,cis,trans-(PtCl2(NH3)2-(succinoyl-triethylene glycolyl-oleoyl)2)]
lattice parameter, hydrated ([3]; 25° C.): 46.54 ± 0.5 Å
lattice parameter, hydrated ([3]; 37° C.): 46.33 ± 0.5 Å
lattice parameter, neat non-hydrated ([3]; temperature not given): 46.20 ± 0.5 Å
lattice parameter of dispersed nanoparticles [4]: 47.62±0.5 Å
structure of dispersed nanoparticles [4]: multilamellar dispersed nanoparticle
